Values of other authors, collected in patent publication US12329856B2, “Crosslinked hyaluronic acid composition with local anesthetics” (BIOPOLIMERI S.R.L., priority 2021, dated 2025).

Conditions: tabulated in the state of the art

| pKa^T (thermodynamic pKa) | SMILES |
| --- | --- |
| 7.6 | CCCNC(C)C(=O)Nc1c(C)csc1C(=O)OC (centres unmarked) [articaine] |
| 7.8 | Cc1cccc(C)c1NC(=O)C1CCCCN1C (centres unmarked) [mepivacaine] |
